# According to patent publication US10344049B2, “Substituted steroids for the treatment of cancer” (AQUAVAN TECHNOLOGY CO., LTD., priority 2017, dated 2019):
# Where two headings read alike, the source gives them in different places.
# Columns and labels:
# Assay type in all cases: cell-based
# [1] = test system: human breast cancer cells MDA-MB-231; experiment: Cell viability test (Resazurin), MDA-MB-231 cells; design: evaluation of ability to inhibit cell growth activity (IC50): scale not given here
# Procedure: (§1) Cell viability was determined with Resazurin (at a final concentration of 25 μg/mL).
# [2] = test system: human leukemia cells U937; experiment: Cell viability test (Resazurin), U937 cells
# Procedure: as §1
# [3] = test system: human Glioblastoma cells U87-MG; experiment: Cell viability test (Resazurin), U87-MG cells; design: evaluation of ability to inhibit cell growth activity (IC50): scale not given here; settings: for evaluation of ability to inhibit cell growth activity (IC50): grade of the IC50 of Table 2
# Procedure: as §1
# [4] = test system: human liver cancer cells Mahlavu; experiment: Cell viability test (Resazurin), Mahlavu cells; settings: for evaluation of ability to inhibit cell growth activity (IC50): grade of the IC50 of Table 2
# Procedure: as §1
# [5] = test system: human breast cancer cells MDA-MB-468; experiment: Cell viability test (Resazurin), MDA-MB-468 cells
# Procedure: as §1
# [6] = test system: human lung cancer cells A549; experiment: Cell viability test (Resazurin), A549 cells; design: evaluation of ability to inhibit cell growth activity (IC50): scale not given here
# Procedure: as §1
# [7] = test system: African green monkey kidney cells Vero; experiment: Cell viability test (Resazurin), Vero cells
# Procedure: as §1
# [8] = test system: human colorectal cancer cells SW-480; experiment: Cell viability test (Resazurin), SW480 cells; design: evaluation of ability to inhibit cell growth activity (IC50): scale not given here
# Procedure: as §1
# [9] = Homo sapiens, MDA-MB-231, 48 h, MDA-MB-231 cells, 48 hours, 0.1% FCS, Resazurin, read-out: inhibitory concentrations of cell growth activity IC50
# [10] = Homo sapiens, MDA-MB-231, MDA-MB-231 cells, grade of the IC50 of Table 2, read-out: evaluation of ability to inhibit cell growth activity (IC50)
# [11] = Homo sapiens, U-937, 48 h, U937 cells, 48 hours, 0.1% FCS, Resazurin, read-out: inhibitory concentrations of cell growth activity IC50
# [12] = Homo sapiens, U-937, U937 cells, grade of the IC50 of Table 2, read-out: evaluation of ability to inhibit cell growth activity (IC50)
# [13] = Homo sapiens, U-87 MG, 48 h, 0.1% FCS, Resazurin, read-out: inhibitory concentrations of cell growth activity IC50
# [14] = Homo sapiens, U-87 MG, grade of the IC50 of Table 2, read-out: evaluation of ability to inhibit cell growth activity (IC50)
# [15] = Homo sapiens, Mahlavu, 48 h, 0.1% FCS, Resazurin, read-out: inhibitory concentrations of cell growth activity IC50
# [16] = Homo sapiens, Mahlavu, grade of the IC50 of Table 2, read-out: evaluation of ability to inhibit cell growth activity (IC50)
# [17] = Homo sapiens, MDA-MB-468, 48 h, MDA-MB-468 cells, 48 hours, 0.1% FCS, Resazurin, read-out: inhibitory concentrations of cell growth activity IC50
# [18] = Homo sapiens, MDA-MB-468, MDA-MB-468 cells, grade of the IC50 of Table 2, read-out: evaluation of ability to inhibit cell growth activity (IC50)
# [19] = Homo sapiens, A549, 48 h, A549 cells, 48 hours, 0.1% FCS, Resazurin, read-out: inhibitory concentrations of cell growth activity IC50
# [20] = Homo sapiens, A549, A549 cells, grade of the IC50 of Table 2, read-out: evaluation of ability to inhibit cell growth activity (IC50)
# [21] = Chlorocebus sabaeus, Vero, 48 h, 0.1% FCS, Resazurin, read-out: inhibitory concentrations of cell growth activity IC50
# [22] = Chlorocebus sabaeus, Vero, grade of the IC50 of Table 2, read-out: evaluation of ability to inhibit cell growth activity (IC50)
# [23] = Homo sapiens, SW480, 48 h, SW480 cells, 48 hours, 0.1% FCS, Resazurin, read-out: inhibitory concentrations of cell growth activity IC50
# [24] = Homo sapiens, SW480, SW480 cells, grade of the IC50 of Table 2, read-out: evaluation of ability to inhibit cell growth activity (IC50)
# [25] = SW480 cells, grade of the IC50 of Table 2
# [26] = MDA-MB-468 cells, grade of the IC50 of Table 2
# [27] = A549 cells, grade of the IC50 of Table 2
# [28] = MDA-MB-231 cells, grade of the IC50 of Table 2
# [29] = U937 cells, grade of the IC50 of Table 2
# [30] = 48 hours, 0.1% FCS, Resazurin, read-out: inhibitory concentrations of cell growth activity IC50
# [31] = grade of the IC50 of Table 2, read-out: evaluation of ability to inhibit cell growth activity (IC50)
Compound,"IC50 [1, 9] [µM]","IC50 [1, 10] [µM]","IC50 [2, 11] [µM]","IC50 [2, 12] [µM]","IC50 [3, 13] [µM]","IC50 [3, 14] [µM]","IC50 [4, 15] [µM]","IC50 [4, 16] [µM]","IC50 [5, 17] [µM]","IC50 [5, 18] [µM]","IC50 [6, 19] [µM]","IC50 [6, 20] [µM]","IC50 [7, 21] [µM]","IC50 [7, 22] [µM]","IC50 [8, 23] [µM]","IC50 [8, 24] [µM]",evaluation of ability to inhibit cell growth activity (IC50) [4],"evaluation of ability to inhibit cell growth activity (IC50) [8, 25]","evaluation of ability to inhibit cell growth activity (IC50) [5, 26]",evaluation of ability to inhibit cell growth activity (IC50) [3],further results
C[C@H](C/C=C/C(C)(C)O)[C@H]1CC[C@@]2(C)[C@@H]3[C@@H](O)C=C4[C@@H](CC[C@H](O)C4(C)C)[C@]3(C=O)CC[C@]12C [Compound 1],> 256,> 256,36.6,16 to 64,150,64 to 256,> 256,> 256,> 256,> 256,> 256,> 256,> 256,> 256,> 256,> 256,–,–,–,–,–
CC(C)=C[C@H](O)C[C@@H](C)[C@H]1CC[C@@]2(C)[C@@H]3[C@@H](O)C=C4[C@@H](CC[C@H](O)C4(C)C)[C@]3(C=O)CC[C@]12C [Compound 2],4.44,< 8,0.05,< 8,7.52,< 8,11.3,8 to 16,7.25,< 8,4.16,< 8,12.8,–,13.1,8 to 16,◯,◯,–,–,evaluation of ability to inhibit cell growth activity (IC50) ([7]; grade of the IC50 of Table 2): ◯
CC(=O)O[C@H]1C=C2[C@@H](CC[C@H](OC(C)=O)C2(C)C)[C@]2(C=O)CC[C@]3(C)[C@@H]([C@H](C)C[C@H](C=C(C)C)OC(C)=O)CC[C@@]3(C)[C@H]12 [Compound 3],5.2,< 8,3.45,< 8,6.82,< 8,23,16 to 64,10.4,8 to 16,12.2,8 to 16,> 256,> 256,18.2,16 to 64,–,–,◯,–,"evaluation of ability to inhibit cell growth activity (IC50) [6, 27]: ◯"
CC(=O)O[C@H]1C=C2[C@@H](CC[C@H](OC(C)=O)C2(C)C)[C@]2(C=O)CC[C@]3(C)[C@@H]([C@H](C)C/C=C/C(C)(C)O)CC[C@@]3(C)[C@H]12 [Compound 4],12.1,8 to 16,8.08,8 to 16,14.4,8 to 16,29.4,16 to 64,18.6,16 to 64,12.9,8 to 16,35.3,16 to 64,13,8 to 16,–,◯,–,◯,"evaluation of ability to inhibit cell growth activity (IC50) [1, 28]: ◯; evaluation of ability to inhibit cell growth activity (IC50) [2, 29]: ◯; evaluation of ability to inhibit cell growth activity (IC50) [6, 27]: ◯"
CC(=O)O[C@H]1C=C2[C@@H](CC[C@H](OC(C)=O)C2(C)C)[C@]2(C=O)CC[C@]3(C)[C@@H]([C@H](C)C[C@@H](O)C=C(C)C)CC[C@@]3(C)[C@H]12 [Compound 5],8.07,8 to 16,3.67,< 8,8.8,8 to 16,18.5,16 to 64,16.8,16 to 64,12,8 to 16,25.3,16 to 64,16.4,16 to 64,–,–,–,◯,"evaluation of ability to inhibit cell growth activity (IC50) [1, 28]: ◯; evaluation of ability to inhibit cell growth activity (IC50) [6, 27]: ◯"
CC(=O)O[C@H]1CC[C@@H]2C(=C[C@H](O)[C@@H]3[C@@]2(C=O)CC[C@]2(C)[C@@H]([C@H](C)C[C@H](C=C(C)C)OC(C)=O)CC[C@@]32C)C1(C)C [Compound 6],23.5,16 to 64,1.57,< 8,23.4,16 to 64,16.2,16 to 64,14,8 to 16,5.43,< 8,23.1,16 to 64,14.9,8 to 16,–,◯,◯,–,–
CC(=O)O[C@H]1C=C2[C@@H](CC[C@H](O)C2(C)C)[C@]2(C=O)CC[C@]3(C)[C@@H]([C@H](C)C[C@H](C=C(C)C)OC(C)=O)CC[C@@]3(C)[C@H]12 [Compound 7],6,< 8,5.52,< 8,8.51,8 to 16,11.9,8 to 16,13.9,8 to 16,6.26,< 8,23.2,16 to 64,13.5,8 to 16,◯,◯,◯,◯,–
CC(=O)O[C@H]1C=C2[C@@H](CC[C@H](O)C2(C)C)[C@]2(C=O)CC[C@]3(C)[C@@H]([C@H](C)C[C@@H](O)C=C(C)C)CC[C@@]3(C)[C@H]12 [Compound 8],–,–,–,–,–,–,–,–,–,–,–,–,–,–,–,–,◯,◯,◯,–,"IC50 ([1]; MDA-MB-231 cells, 48 hours, 0.1% FCS, Resazurin, read-out: inhibitory concentrations of cell growth activity IC50): 5.19 µM; IC50 ([1]; MDA-MB-231 cells, grade of the IC50 of Table 2, read-out: evaluation of ability to inhibit cell growth activity (IC50)): < 8 µM; IC50 ([2]; U937 cells, 48 hours, 0.1% FCS, Resazurin, read-out: inhibitory concentrations of cell growth activity IC50): 5.39 µM; IC50 ([2]; U937 cells, grade of the IC50 of Table 2, read-out: evaluation of ability to inhibit cell growth activity (IC50)): < 8 µM; IC50 [3, 30]: 7.54 µM; IC50 [3, 31]: < 8 µM; IC50 [4, 30]: 11.5 µM; IC50 ([5]; MDA-MB-468 cells, 48 hours, 0.1% FCS, Resazurin, read-out: inhibitory concentrations of cell growth activity IC50): 9.81 µM; IC50 ([6]; A549 cells, 48 hours, 0.1% FCS, Resazurin, read-out: inhibitory concentrations of cell growth activity IC50): 4.86 µM; IC50 ([6]; A549 cells, grade of the IC50 of Table 2, read-out: evaluation of ability to inhibit cell growth activity (IC50)): < 8 µM; IC50 [7, 30]: 24.2 µM; IC50 [7, 31]: 16 to 64 µM; IC50 ([8]; SW480 cells, 48 hours, 0.1% FCS, Resazurin, read-out: inhibitory concentrations of cell growth activity IC50): 13.8 µM"
CC(=O)O[C@H]1C=C2[C@@H](CC[C@H](O)C2(C)C)[C@]2(C=O)CC[C@]3(C)[C@@H]([C@H](C)C/C=C/C(C)(C)O)CC[C@@]3(C)[C@H]12 [Compound 9],18.3,16 to 64,11.2,8 to 16,15.6,8 to 16,5.07,< 8,26.8,16 to 64,24.4,16 to 64,25.9,16 to 64,31.8,16 to 64,–,–,–,◯,"evaluation of ability to inhibit cell growth activity (IC50) [2, 29]: ◯"
